The target of the assay is DRB3*0202 (Homo sapiens, UniProt P01903+P79483, A212P/D57E/F66Y/L67A/R103Q/R218S/R40L/S89Y/T80R/V86D/Y55F/Y59H). Kind of assay: peptide affinity binding assay (in-vitro peptide-MHC binding affinity). The following applies: PADRE and DRB3*0202.
Sequence of DRB3*0202 (P01903 26-254 limits assumed): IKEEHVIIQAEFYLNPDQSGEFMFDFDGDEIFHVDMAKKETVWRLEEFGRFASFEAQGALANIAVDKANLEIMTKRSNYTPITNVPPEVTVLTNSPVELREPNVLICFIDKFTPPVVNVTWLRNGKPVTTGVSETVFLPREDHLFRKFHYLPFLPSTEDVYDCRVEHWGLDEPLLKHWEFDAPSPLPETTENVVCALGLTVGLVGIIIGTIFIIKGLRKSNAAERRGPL
Sequence of DRB3*0202 (P79483 30-266 R40L/Y55F/D57E/Y59H/F66Y/L67A/T80R/V86D/S89Y/R103Q/A212P/R218S limits assumed): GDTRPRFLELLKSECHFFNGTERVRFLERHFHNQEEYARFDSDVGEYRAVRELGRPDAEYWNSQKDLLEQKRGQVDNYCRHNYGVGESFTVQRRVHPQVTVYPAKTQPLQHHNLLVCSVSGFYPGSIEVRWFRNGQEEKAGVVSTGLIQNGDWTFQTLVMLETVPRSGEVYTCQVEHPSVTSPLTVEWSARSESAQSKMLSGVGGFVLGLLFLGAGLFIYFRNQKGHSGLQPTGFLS

As to `CC(C)C[C@H](NC(=O)[C@@H](NC(=O)[C@H](Cc1c[nH]c2ccccc12)NC(=O)[C@H](C)NC(=O)[C@H](C)NC(=O)[C@@H](NC(=O)[C@H](Cc1ccccc1)NC(=O)[C@H](CCCCN)NC(=O)[C@H](C)N)C(C)C)[C@@H](C)O)C(=O)N[C@@H](CCCCN)C(=O)N[C@@H](C)C(=O)N[C@@H](C)C(=O)N[C@@H](C)C(=O)O` [PADRE], the “peptide-MHC binding affinity before and after the addition of an infrared fluorophore ligand” value is listed as “essentially unchanged”.

Values taken from patent publication US20250152685A1, “METHOD OF MAKING A PERSONALIZED CANCER VACCINE” (FLOW PHARMA, INC., priority 2019, published 2025).
